Assay results from patent US20230039836A1, “AROMATIC SULPHONAMIDES DERIVATIVES THAT INHIBITS PDI A3, THEIR SYNTHESIS AND USE” (Uniwersytet Jagiellonski, priority 2020, published 2023).
Values after ≈ are worked out from the molar mass of the structure shown. Values joined by “and” are separate entries in the source; they are usually repeats but may differ in a detail not shown here. Identical values can stand only once. Like-named read-outs stand apart in the source and are kept apart here.

How the values were obtained:
HT-29 = assay: Sulforhodamine B antiproliferative assay, 72 h; format: cell-based, human; conditions: Homo sapiens, HT-29; normal (21% of oxygen), 72-hour exposition
Description: (§1) Anticancer activity of PDI A1-inhibitors has been also tested in vitro in antiproliferative essay in normoxic and hypoxic conditions as well in estrogen-stimulated cancer cells. In the experiment, cells were seeded on 96-well plates (Sarstedt, Germany) in appropriate culture medium at a density of 10^5 cells/mL 24 h before adding the tested compounds. Cells were treated with each compound in four concentrations in the range 0.1-100 ug/mL. […] After 72 h of compound treatment at 37° C., 5 % CO2 humid atmosphere and in wo different oxygen level conditions: 21% - normal and <1% - hypoxia. In some experiments, the MDA-MB-231 and MCF-7 cells were seeded with or without 200 nM estradiol and after 24 h the tested compounds were added. A previously described sulforhodamine B antiproliferative assay was used with minor modifications (Skehan P et al., 1990). Briefly, cells were fixed with 50 µL/well of 50% (w/v) trichloroacetic acid (Avantor Performance Materials, Gliwice, Poland). After 1 h incubation, plates were washed several times with tap water and 50 µL of 0.4% (w/v) solution of sulforhodamine B (Sigma-Aldrich, Germany) in 1% (v/v) acetic acid (Avantor Performance Materials, Gliwice, Poland) was added to each well. After 30 min incubation at room temperature, unbound dye was washed out with 1% (v/v) acetic acid, whereas bound dye was solubilized with 10 mM unbuffered TRIS (Avantor Performance Materials, Gliwice, Poland) solution. The entire procedure was performed using a BioTek EL-406 washing station (BioTek Instruments, USA). After additional 30 min, absorbance was read using a Biotek Hybrid H4 reader (BioTek Instruments, USA) at 540 nm wavelength. MTT assay was used alternatively for HL-60 cell line and in the experiment in which estrogens are added (specified in the table legend). Absorbance was measured using a Biotek Hybrid H4 reader at 570 nm wavelength for MTT assay.
(§2) Compounds at each concentration were tested in triplicate in a single experiment and each experiment was repeated at least three times independently.
(§3) Results of in vitro antiproliferative effects are shown in Table 3 and Table 4 and are presented as mean IC50 ± SD calculated using the Prolab-3 system based on Cheburator 0.4 software.

[1] = system: Lewis Lung Carcinoma (LLC); assay: Murine model of Lewis Lung Carcinoma; format: in vivo, mice
Description: To confirm anticancer activity of selected compounds of invention, PDI A1-inhibitors in vivo, selected compounds of invention were tested in the murine model of Lewis Lung Carcinoma (LLC). The Lewis Lung Carcinoma (LLC) cell line was obtained from the ATCC collection and was cultured in a humidified atmosphere of 5% CO2 at 37° using Dulbecco’s modified Eagle’s medium (DMEM) that contained 10% bovine serum (Sigma). Female (6-8 weeks old) C57BL/6 mice (purchased from Envigo RMS. BV., Nederland) were acclimated for one week and were fed with animal chow and water ad libitum. The C57BL/6 mice were injected s.c. with 0.5 × 10^5 LLC cells per mice in 100 µL PBS. Compounds were dissolved in DMSO and then 0.9% NaCl (DMSO final concentration 1%) were added. In each treatment group, i.p. injections of 100 µl compound were started on 1 day after tumor inoculation. Control animals injected with equal volume of 0.9% NaCl with 1% DMSO administered in the same schedule as other groups. Tumor larger radius (a) and smaller radius (b) were measured by calipers. The tumor volume (Tv) was calculated according the following formulaTv = V=4 • ab2/3. The mice in control group were sacrificed 17 days after tumor establishment. Tumor tissues were dissected, weighed and frozen in OCT compound.

[2] = system: arterial thrombosis, right common carotid artery; assay: Rat model of arterial thrombosis; format: in vivo; conditions: Wistar rats, FIG. 6, dose as low as
Description: To confirm antithrombotic activity of compounds of invention, inhibitors of PDIA1, pharmacological activity of selected compounds was tested in vivo in the rat model of arterial thrombosis . Wistar rats were anaesthetized with pentobarbital (40 mg/kg, i.p.) and placed in a supine position on a heated (37° C.) operating table. Arterial thrombosis was induced by electrical stimulation of the right common carotid artery, as previously described (Kramkowski et al., 2012). Briefly, the anode, a stainless steel L-shaped wire, was inserted under the artery and connected to a constant current generator. The cathode was attached subcutaneously to the hind limb. The artery was stimulated (1 mA) for 10 min. Fifty-five minutes after the beginning of stimulation, the segment of the common carotid artery containing the formed thrombus was dissected and opened lengthwise, and the thrombus was completely removed and air-dried at room temperature for 24 h. Thrombus was then weighed in a blinded manner.

MDA-MB-231 = assay: Sulforhodamine B antiproliferative assay, 72 h, normal and hypoxia; format: cell-based, human; conditions: Homo sapiens, MDA-MB-231, 72-hour exposition
Description: as §1, §2, §3

MCF-7 = assay: as above; format: cell-based, human; conditions: Homo sapiens, MCF7, 72-hour exposition
Description: as §1, §2, §3

Caco-2 = assay: Sulforhodamine B antiproliferative assay, 72 h; format: cell-based, human; conditions: Homo sapiens, Caco-2; normal (21% of oxygen), 72-hour exposition
Description: In the experiment, cells were seeded on 96-well plates (Sarstedt, Germany) in appropriate culture medium at a density of 10^5 cells/mL 24 h before adding the tested compounds. Cells were treated with each compound in four concentrations in the range 0.1-100 ug/mL. […] Briefly, cells were fixed with 50 µL/well of 50% (w/v) trichloroacetic acid (Avantor Performance Materials, Gliwice, Poland). After 1 h incubation, plates were washed several times with tap water and 50 µL of 0.4% (w/v) solution of sulforhodamine B (Sigma-Aldrich, Germany) in 1% (v/v) acetic acid (Avantor Performance Materials, Gliwice, Poland) was added to each well. After 30 min incubation at room temperature, unbound dye was washed out with 1% (v/v) acetic acid, whereas bound dye was solubilized with 10 mM unbuffered TRIS (Avantor Performance Materials, Gliwice, Poland) solution. […] After additional 30 min, absorbance was read using a Biotek Hybrid H4 reader (BioTek Instruments, USA) at 540 nm wavelength.

[3] = C57BL/6 mice, LLC s.c., 75 mg/kg i.p., 5 animals
[4] = C57BL/6 mice, LLC s.c., 75 mg/kg i.p., single animals, 75 mg/kg

CCCCc1ccc(S(=O)(=O)N2CC2C(=O)OC)cc1 (stereo not drawn) [Compound C-3257, Methyl 1-(4-butylphenyl)sulfonylaziridine-2-carboxylate]
IC50 (HT-29): 23.8 ± 4.8 µg/mL (≈ 80 µM)
Tumor volume average±stdev, day 10 [1, 3]: 66±147 mm3
Tumor volume average±stdev, day 12 [1, 3]: 208±287 mm3
Tumor volume average±stdev, day 14 [1, 3]: 462±264 mm3
Tumor volume average±stdev, day 16 [1, 3]: 686±108 mm3
Tumor volume average±stdev, day 17 [1, 3]: 1097±482 mm3
Individual tumor volumes, day 10 [1, 4]: 0 mm3 (4×) and 329 mm3
Individual tumor volumes, day 12 [1, 4]: 572 mm3 and 0 mm3 (3×) and 468 mm3
Individual tumor volumes, day 14 [1, 4]: 594 mm3 and 0 mm3 and 537 mm3 and 657 mm3 and 523 mm3
Individual tumor volumes, day 16 [1, 4]: 794 mm3 and 548 mm3 and 601 mm3 and 772 mm3 and 717 mm3
Individual tumor volumes, day 17 [1, 4]: 674 mm3 and 882 mm3 and 1016 mm3 (2×) and 986 mm3
Anti-cancer activity in vivo ([1]; LLC model, Tables 6 and 7): possess anti-cancer activity in vivo
Dose at which effect on thrombus formation was significant and pronounced [2]: 0.03 µmol/kg
IC50 (MDA-MB-231; hypoxia (<1% of oxygen), read-out: IC50 [µg/ml] MDA-MB-231 hypoxia): 13.5 ± 4 µg/mL (≈ 45.4 µM)
IC50 (MDA-MB-231; normal (21% of oxygen), read-out: IC50 [µg/ml] MDA-MB-231 normal): 9.9 ± 2.8 µg/mL (≈ 33.3 µM)
IC50 (MCF-7; hypoxia (<1% of oxygen), read-out: IC50 [µg/ml] MCF-7 hypoxia): 17.1 ± 7.4 µg/mL (≈ 57.5 µM)
IC50 (MCF-7; normal (21% of oxygen), read-out: IC50 [µg/ml] MCF-7 normal): 20.8 ± 6.6 µg/mL (≈ 69.9 µM)
IC50 (Caco-2): 9.8 ± 3.8 µg/mL (≈ 33 µM)
